The numbers were not newly measured in paper PMC6957711 (Journal of Alzheimer's Disease, 2020), which cites them from elsewhere.

The conditions of series [1]: Phase III clinical studies.
In another series the test system is tau. Particulars: in vitro.

On to `CN(C)c1ccc2c(c1)Sc1cc(N(C)C)ccc1N2.CS(=O)(=O)O.CS(=O)(=O)O` [LMTX, Leuco-Methylthioninium Bis(Hydromethanesulphonate)], for which the clinical endpoints entry in series [1] is recorded as “failed to meet its clinical endpoints”.

As for `CN(C)c1ccc2nc3ccc(=[N+](C)C)cc-3sc2c1` [methylene blue], in the series on tau, the tau fibril formation result is recorded as “inhibits” and the tau oligomer formation entry is recorded as “accelerates”.
